Data from publication PMC12257397, “Scaffold Hopping Strategy toward New 4‑Aminoquinazolines Active Against Extracellular and Intracellular Mycobacterium tuberculosis” (ACS Medicinal Chemistry Letters, 2025).
In brackets after ≈: the same amount, converted by molar mass.

Columns and labels:
[1] = tested on: M. tuberculosis H37Rv (ATCC 27294); assay: MIC by resazurin reduction microplate assay (REMA); format: cell-based; conditions: Mycobacterium tuberculosis, converted from μg/mL to μM
in vitro [2] = conditions: human
[3] = tested on: M. tuberculosis H37Rv-LP (ATCC 25618); assay: microbe, parasite or virus in culture; format: cell-based; conditions: Mycobacterium tuberculosis, 120 h, concentration inhibiting 90% of growth, 5 days, read-out: MIC parental wild-type strain H37Rv-LP
in vitro [4] = conditions: human; remark: listed apart in the source
in vitro [5] = conditions: human; remark: listed apart in the source

SMILES | MIC [1] [µM] | other results
Cc1nc(NCCc2ccccc2)c2ccccc2n1 [9a] | 38 (≈ 10 µg/mL) | 
COc1ccc2nc(C)nc(NCCc3ccccc3)c2c1 [9b] | 34.1 (≈ 10 µg/mL) | 
Cc1nc(NCCc2ccccc2)c2cc(Br)ccc2n1 [9c] | 7.3 (≈ 2.5 µg/mL) | 
c1ccc(CCNc2ncnc3ccccc23)cc1 [9e] | 80.2 (≈ 20 µg/mL) | 
COc1ccc(CCNc2nc(C)nc3ccccc23)cc1 [10a] | 34.1 (≈ 10 µg/mL) | 
COc1ccc(CCNc2nc(C)nc3ccc(OC)cc23)cc1 [10b] | 30.9 (≈ 9.99 µg/mL) | 
COc1ccc(CCNc2nc(C)nc3ccc(Br)cc23)cc1 [10c] | 13.4 (≈ 4.99 µg/mL) | 
COc1ccc(CCNc2nc(C)nc3ccc(I)cc23)cc1 [10d] | 1.5 (≈ 0.629 µg/mL) | CC50 at 72 h (in vitro [2]; CC50 HepG2+Gal): 6.4 µM; CC50 at 72 h (in vitro [2]; CC50 HepG2+Glu): 10.8 µM; MIC [3]: 0.92 µM (≈ 0.386 µg/mL)
COc1ccc(CCNc2ncnc3ccccc23)cc1 [10e] | 71.6 (≈ 20 µg/mL) | 
Cc1nc(NCCc2ccc(Cl)cc2)c2ccccc2n1 [11a] | 16.8 (≈ 5 µg/mL) | 
COc1ccc2nc(C)nc(NCCc3ccc(Cl)cc3)c2c1 [11b] | 30.5 (≈ 10 µg/mL) | 
Cc1nc(NCCc2ccc(Cl)cc2)c2cc(Br)ccc2n1 [11c] | 13.3 (≈ 5.01 µg/mL) | 
Cc1nc(NCCc2ccc(Cl)cc2)c2cc(I)ccc2n1 [11d] | 0.73 (≈ 0.309 µg/mL) | CC50 at 72 h (in vitro [2]; CC50 HepG2+Gal): 3.3 µM; CC50 at 72 h (in vitro [2]; CC50 HepG2+Glu): 4.2 µM; MIC [3]: 0.84 µM (≈ 0.356 µg/mL)
Clc1ccc(CCNc2ncnc3ccccc23)cc1 [11e] | > 35.2 | 
Cc1nc(NCC(c2ccccc2)c2ccccc2)c2ccccc2n1 [12a] | 29.5 (≈ 10 µg/mL) | 
COc1ccc2nc(C)nc(NCC(c3ccccc3)c3ccccc3)c2c1 [12b] | 27.1 (≈ 10 µg/mL) | 
Cc1nc(NCC(c2ccccc2)c2ccccc2)c2cc(Br)ccc2n1 [12c] | > 23.9 | 
Cc1nc(NCC(c2ccccc2)c2ccccc2)c2cc(I)ccc2n1 [12d] | > 21.5 | 
c1ccc(C(CNc2ncnc3ccccc23)c2ccccc2)cc1 [12e] | > 30.7 | 
Cc1nc(NCCc2ccc(OC(F)(F)F)cc2)c2ccccc2n1 [13a] | 7.2 (≈ 2.5 µg/mL) | 
COc1ccc2nc(C)nc(NCCc3ccc(OC(F)(F)F)cc3)c2c1 [13b] | 13.3 (≈ 5.02 µg/mL) | 
Cc1nc(NCCc2ccc(OC(F)(F)F)cc2)c2cc(Br)ccc2n1 [13c] | 5.9 (≈ 2.51 µg/mL) | CC50 at 72 h (in vitro [4]): < 1 µM; CC50 at 72 h (in vitro [2]; CC50 HepG2+Gal): 1 µM; CC50 at 72 h (in vitro [2]; CC50 HepG2+Glu): 1.5 µM; MIC [3]: 3.4 µM (≈ 1.45 µg/mL); CC50 at 72 h (in vitro [5]): < 1 µM
Cc1nc(NCCc2ccc(OC(F)(F)F)cc2)c2cc(I)ccc2n1 [13d] | 5.3 (≈ 2.51 µg/mL) | CC50 at 72 h (in vitro [4]): 7.4 µM; CC50 at 72 h (in vitro [2]; CC50 HepG2+Gal): 2.2 µM; CC50 at 72 h (in vitro [2]; CC50 HepG2+Glu): 3.4 µM; MIC [3]: 3.7 µM (≈ 1.75 µg/mL); CC50 at 72 h (in vitro [5]): 7.3 µM
FC(F)(F)Oc1ccc(CCNc2ncnc3ccccc23)cc1 [13e] | 60 (≈ 20 µg/mL) | 
Cc1nc(NCCc2ccc(S(N)(=O)=O)cc2)c2ccccc2n1 [14a] | > 117 | 
COc1ccc2nc(C)nc(NCCc3ccc(S(N)(=O)=O)cc3)c2c1 [14b] | > 107 | 
